The values below come from US12098145B2 (Libra Therapeutics, Inc., priority 2022, dated 2024).

Experiment [1] deals with T1, TRPML1 (Homo sapiens, UniProt Q9GZU1).
T1 construct: expressed in transfected cells; host or cells: HEK T-REx cells stably expressing GCaMP6f and TRPML1
In words: Cellular TRPML1 assay (FLIPR, GCaMP6f calcium read-out). Format: cell-based. In outline: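 HEK T-REx cells stably expressing TRPML1 and GCaMP6f, seeded 24 h before in Optimem + 0.5% FBS. After ~10 min pre-incubation at room temperature, compounds in Ca2+-free Tyrode's buffer were injected on FLIPR Tetra (final DMSO 0.5%). Calcium fluorescence kinetics followed for 300 s.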

For experiment [2], the system named is TFEB. In words: TFEB translocation assay (TFEB reporter in U2OS cells, imaging). The following applies: Homo sapiens; U2OS cell line with TFEB reporter, 2 hours incubation, nucleus to cytoplasm ratio, normalized to Torin-1; read-out: TFEB Translocation pEC50 (converted). Format: cell-based. In outline:
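U2OS cells stably expressing mRFP-fused TFEB reporter, switched to Opti-MEM then treated 2 h at 37 °C with compounds (0.5% DMSO, 0.015% Tween 80). Hoechst-stained, PFA-fixed cells imaged at 20×; nucleus/cytoplasm intensity ratio per well normalized to Torin-1 (100%) and DMSO (0%).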

Where [3] appears, read: HEKT-REx/GCaMP6f/TRPML1 cells, FLIPR TETRA, kinetic response over 300 seconds, read-out: TRPML1 FLIPR pEC50 (converted).

Molecules are shown by their SMILES. Read-outs that look alike come from different tables or passages of the source.

T1 sequence (Q9GZU1 whole entry): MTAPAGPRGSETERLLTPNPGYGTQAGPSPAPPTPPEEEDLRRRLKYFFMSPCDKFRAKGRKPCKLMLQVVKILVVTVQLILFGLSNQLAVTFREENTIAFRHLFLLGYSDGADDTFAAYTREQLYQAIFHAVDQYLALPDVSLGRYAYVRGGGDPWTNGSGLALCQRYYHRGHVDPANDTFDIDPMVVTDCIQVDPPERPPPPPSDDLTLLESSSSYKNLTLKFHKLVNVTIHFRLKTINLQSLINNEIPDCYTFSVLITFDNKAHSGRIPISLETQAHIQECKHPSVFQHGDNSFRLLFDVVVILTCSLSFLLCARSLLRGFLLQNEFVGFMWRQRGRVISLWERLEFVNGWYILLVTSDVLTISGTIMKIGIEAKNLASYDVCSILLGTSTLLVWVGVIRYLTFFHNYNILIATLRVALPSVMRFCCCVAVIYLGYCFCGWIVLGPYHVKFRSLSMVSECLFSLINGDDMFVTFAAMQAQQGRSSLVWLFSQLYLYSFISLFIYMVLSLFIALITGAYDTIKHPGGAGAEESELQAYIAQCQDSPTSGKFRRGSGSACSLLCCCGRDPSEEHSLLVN

In the case of `CC1(CO)CN(c2nc(C(=O)Nc3ccc(OC4CC5CC(C5)C4)c(F)c3)c(CC(F)(F)F)o2)C1` (stereo not shown) [Example 135, N-(4-(bicyclo[3.1.1]heptan-3-yloxy)-3-fluorophenyl)-2-(3-(hydroxymethyl)-3-methylazetidin-1-yl)-5-(2,2,2-trifluoroethyl)oxazole-4-carboxamide], the EC50 in experiment [1] (setting [3]) and in experiment [2] was 10 to 1000 nM in each case.
On to `COC1(C)CN(c2nc(C(=O)Nc3cc(F)c(O[C@@H]4C[C@@H]5C[C@@H]5C4)c(C#N)c3)c(CC(F)(F)F)o2)C1` [Example 142, N-(4-(cis-bicyclo[3.1.0]hexan-3-yloxy)-3-cyano-5-fluorophenyl)-2-(3-methoxy-3-methylazetidin-1-yl)-5-(2,2,2-trifluoroethyl)oxazole-4-carboxamide], for which the EC50 in experiment [1] (setting [3]) and in experiment [2] was 10 to 1000 nM throughout.
Turning to `O=C(Nc1ccc(OC2CC3CC(C3)C2)c(F)c1)c1nc(N2CCCC2)oc1CC(F)(F)F` (stereo not shown) [Example 143, N-(4-(bicyclo[3.1.1]heptan-3-yloxy)-3-fluorophenyl)-2-(pyrrolidin-1-yl)-5-(2,2,2-trifluoroethyl)oxazole-4-carboxamide], the EC50 in experiment [1] (setting [3]) and in experiment [2] was 10 to 1000 nM each time.
Regarding `O=C(Nc1cc(F)c(OC2CC3C[C@H]3C2)c(F)c1)c1nc(N2C[C@@H]3CCO[C@@H]3C2)oc1CC(F)(F)F` (stereo partly drawn) [Example 180, N-(4-(cis-bicyclo[3.1.0]hexan-3-yloxy)-3,5-difluorophenyl)-2-((3aS,6aS)-hexahydro-5H-furo[2,3-c]pyrrol-5-yl)-5-(2,2,2-trifluoroethyl)oxazole-4-carboxamide], the EC50 in experiment [1] (setting [3]) and in experiment [2] was 10 to 1000 nM in each case.
On to `O=C(Nc1cc(F)c2c(c1)CCN2C1CC2CC2C1)c1nc(N2CCCC2)oc1CC(F)(F)F` (stereo not shown) [Example 315, N-(1-(bicyclo[3.1.0]hexan-3-yl)-7-fluoroindolin-5-yl)-2-(pyrrolidin-1-yl)-5-(2,2,2-trifluoroethyl)oxazole-4-carboxamide], for which the values for the EC50 in experiment [1] (setting [3]) and in experiment [2] were 1000 to 10000 nM and 10 to 1000 nM, respectively.
On the same counts, the results for `O=C(Nc1ccc(OC2CCCC2(F)F)c(F)c1)c1nc(N2CCC3(COC3)C2)oc1CC(F)(F)F` (stereo not shown) [Example 19, N-{4-[(2,2-difluorocyclopentyl)oxy]-3-fluorophenyl}-2-{2-oxa-6-azaspiro[3.4]octan-6-yl}-5-(2,2,2-trifluoroethyl)oxazole-4-carboxamide] are 10 to 1000 nM and 10 to 1000 nM.
On the same counts, the results for `Cc1oc(N2CCC(CO)C2)nc1C(=O)Nc1ccc(N2CCCCC2)c(F)c1` (stereo not shown) [Example 96, N-(3-fluoro-4-(piperidin-1-yl)phenyl)-2-(3-(hydroxymethyl)pyrrolidin-1-yl)-5-methyloxazole-4-carboxamide] are 10000 to 100000 nM and 10000 to 100000 nM.
With `O=C(Nc1cc(F)c(OC2CC3C[C@H]3C2)c(F)c1)c1nc(N2CC3CCOC3C2)oc1CC(F)(F)F` (stereo partly drawn) [Example 36, N-(4-{cis-bicyclo[3.1.0]hexan-3-yloxy}-3,5-difluorophenyl)-2-{hexahydro-5H-furo[2,3-c]pyrrol-5-yl}-5-(2,2,2-trifluoroethyl)oxazole-4-carboxamide], the EC50 in experiment [1] (setting [3]) and in experiment [2] was 10 to 1000 nM each time.
In the case of `CC1(C)CN(c2nc(C(=O)Nc3cc(F)c(N4C5CCCC4CC5)c(F)c3)c(CC(F)(F)F)o2)C1` [Example 200, N-(4-(8-azabicyclo[3.2.1]octan-8-yl)-3,5-difluorophenyl)-2-(3,3-dimethylazetidin-1-yl)-5-(2,2,2-trifluoroethyl)oxazole-4-carboxamide], the EC50 in experiment [1] and in experiment [2] was 10 to 1000 nM each time.
As to `COC1(C)CN(c2nc(C(=O)Nc3cc(C)c(OC4CC5CC(C5)C4)c(F)c3)c(CCF)o2)C1` (stereo not shown) [Example 281, N-(4-(bicyclo[3.1.1]heptan-3-yloxy)-3-fluoro-5-methylphenyl)-5-(2-fluoroethyl)-2-(3-methoxy-3-methylazetidin-1-yl)oxazole-4-carboxamide], the EC50 in experiment [1] (setting [3]) and in experiment [2] was 10 to 1000 nM in each case.
For the compound `CC1(C)CN(c2nc(C(=O)Nc3ccc(OC4CCCC4(F)F)c(F)c3)c(CC(F)(F)F)o2)CCO1` (stereo not shown) [Example 4, N-{4-[(2,2-difluorocyclopentyl)oxy]-3-fluorophenyl}-2-(2,2-dimethylmorpholin-4-yl)-5-(2,2,2-trifluoroethyl)-1,3-oxazole-4-carboxamide], the EC50 in experiment [1] (setting [3]) is 1000 to 10000 nM; in experiment [2], 10 to 1000 nM.
On the same counts, the results for `CCc1oc(N2CC(CC)(CC)C2)nc1C(=O)Nc1cc(F)c2c(c1)CCN2C1CC2CC2C1` (stereo not shown) [Example 316, N-(1-(bicyclo[3.1.0]hexan-3-yl)-7-fluoroindolin-5-yl)-2-(3,3-diethylazetidin-1-yl)-5-ethyloxazole-4-carboxamide] are 10 to 1000 nM and 10 to 1000 nM.
In the same order, the values of `COCc1oc(N2CC(C)(OC)C2)nc1C(=O)Nc1cc(C)c(O[C@@H]2C[C@@H]3C[C@@H]3C2)c(F)c1` [Example 294, N-(4-(cis-bicyclo[3.1.0]hexan-3-yloxy)-3-fluoro-5-methylphenyl)-2-(3-methoxy-3-methylazetidin-1-yl)-5-(methoxymethyl)oxazole-4-carboxamide] are 10 to 1000 nM and 10 to 1000 nM.
As to `O=C(Nc1ccc(O[C@@H]2C[C@@H]3C[C@@H]3C2)c(F)c1)c1nc(N2CC3(CCOCC3)C2)oc1CC(F)(F)F` [Example 171, N-(4-(cis-bicyclo[3.1.0]hexan-3-yloxy)-3-fluorophenyl)-2-(7-oxa-2-azaspiro[3.5]nonan-2-yl)-5-(2,2,2-trifluoroethyl)oxazole-4-carboxamide], the EC50 in experiment [1] (setting [3]) and in experiment [2] was 10 to 1000 nM each time.
With `O=C(Nc1ccc(OC2CCCCC2(F)F)c(F)c1)c1nc(N2CCCC2)oc1CC(F)(F)F` (stereo not shown) [Example 76, N-{4-[(2,2-difluorocyclohexyl)oxy]-3-fluorophenyl}-2-(pyrrolidin-1-yl)-5-(2,2,2-trifluoroethyl)oxazole-4-carboxamide], the EC50 in experiment [1] (setting [3]) and in experiment [2] was 10 to 1000 nM in each case.
As to `COC1(C)CN(c2nc(C(=O)Nc3cc(C)c(O[C@@H]4C[C@@H]5C[C@@H]5C4)c(F)c3)c(CCF)o2)C1` [Example 280, N-(4-(cis-bicyclo[3.1.0]hexan-3-yloxy)-3-fluoro-5-methylphenyl)-5-(2-fluoroethyl)-2-(3-methoxy-3-methylazetidin-1-yl)oxazole-4-carboxamide], the EC50 in experiment [1] (setting [3]) and in experiment [2] was 10 to 1000 nM each time.
With `O=C(Nc1cc(F)c(OC2CC3C[C@@H]3C2)c(F)c1)c1nc(N2CCC3CCCC32)oc1CC(F)(F)F` (stereo partly drawn) [Example 185, N-(4-(cis-bicyclo[3.1.0]hexan-3-yloxy)-3,5-difluorophenyl)-2-(hexahydrocyclopenta[b]pyrrol-1(2H)-yl)-5-(2,2,2-trifluoroethyl)oxazole-4-carboxamide], the EC50 in experiment [1] (setting [3]) and in experiment [2] was 10 to 1000 nM in each case.
Consider `O=C(Nc1ccc(O[C@@H]2CC3C[C@@H]3C2)c(F)c1)c1nc(N2CCC3CC32)oc1CC(F)(F)F` (stereo partly drawn) [Example 154, 2-(2-azabicyclo[3.1.0]hexan-2-yl)-N-(4-(cis-bicyclo[3.1.0]hexan-3-yloxy)-3-fluorophenyl)-5-(2,2,2-trifluoroethyl)oxazole-4-carboxamide], for which the EC50 in experiment [1] (setting [3]) and in experiment [2] was 10 to 1000 nM in each case.
For the compound `CCC1(CC)CN(c2nc(C(=O)Nc3cc(F)c(O[C@@H]4C[C@@H]5C[C@@H]5C4)c(F)c3)c(CN3CCCC3)o2)C1` [Example 299, N-(4-(cis-bicyclo[3.1.0]hexan-3-yloxy)-3,5-difluorophenyl)-2-(3,3-diethylazetidin-1-yl)-5-(pyrrolidin-1-ylmethyl)oxazole-4-carboxamide], the EC50 in experiment [1] (setting [3]) and in experiment [2] was 10 to 1000 nM in each case.
As to `CCc1oc(N2CC3(C2)CC(F)(F)C3)nc1C(=O)Nc1cc(F)c(N2CC3CC(C3)C2)c(F)c1` [Example 259, N-(4-(3-azabicyclo[3.1.1]heptan-3-yl)-3,5-difluorophenyl)-2-(6,6-difluoro-2-azaspiro[3.3]heptan-2-yl)-5-ethyloxazole-4-carboxamide], the figures for the EC50 in experiment [1] (setting [3]) and in experiment [2] were 1000 to 10000 nM and 10 to 1000 nM, respectively.
For `COC1(C)CN(c2nc(C(=O)Nc3cc(F)c(N4C5CCCC4CC5)c(C#N)c3)c(CC(F)(F)F)o2)C1` [Example 196, N-(4-(8-azabicyclo[3.2.1]octan-8-yl)-3-cyano-5-fluorophenyl)-2-(3-methoxy-3-methylazetidin-1-yl)-5-(2,2,2-trifluoroethyl)oxazole-4-carboxamide], the EC50 in experiment [1] and in experiment [2] was 10 to 1000 nM throughout.
Take `CCC1(CC)CN(c2nc(C(=O)Nc3cc(F)c(O[C@@H]4C[C@@H]5C[C@@H]5C4)c(Cl)c3)c(CC(F)(F)F)o2)C1` [Example 127, N-(4-(cis-bicyclo[3.1.0]hexan-3-yloxy)-3-chloro-5-fluorophenyl)-2-(3,3-diethylazetidin-1-yl)-5-(2,2,2-trifluoroethyl)oxazole-4-carboxamide]: the EC50 in experiment [1] (setting [3]) and in experiment [2] was 10 to 1000 nM each time.
For `CCc1oc(N2CC(CC)(CC)C2)nc1C(=O)Nc1cc(F)c(O[C@@H]2C[C@@H]3C[C@@H]3C2)c(Cl)c1` [Example 221, N-(4-(cis-bicyclo[3.1.0]hexan-3-yloxy)-3-chloro-5-fluorophenyl)-2-(3,3-diethylazetidin-1-yl)-5-ethyloxazole-4-carboxamide], the EC50 in experiment [1] (setting [3]) and in experiment [2] was 10 to 1000 nM each time.
